The text below walks through data of ChEMBL document CHEMBL5665443, “Enzyme Inhibitor Single Concentration assay results for EUbOPEN Chemogenomics Library” (2024).

Common to all, as to details: Compound Concentration 10.0 uM, Hit No
For assay [1], the target named is T1, Endonuclease III-like protein 1 (Homo sapiens) (UniProt P78549).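 Note: enzyme assay tracking NTHL1 cutting and release of a quenched double-stranded DNA oligo substrate, read as fluorescence at 594 nm.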
T1 sequence (whole entry): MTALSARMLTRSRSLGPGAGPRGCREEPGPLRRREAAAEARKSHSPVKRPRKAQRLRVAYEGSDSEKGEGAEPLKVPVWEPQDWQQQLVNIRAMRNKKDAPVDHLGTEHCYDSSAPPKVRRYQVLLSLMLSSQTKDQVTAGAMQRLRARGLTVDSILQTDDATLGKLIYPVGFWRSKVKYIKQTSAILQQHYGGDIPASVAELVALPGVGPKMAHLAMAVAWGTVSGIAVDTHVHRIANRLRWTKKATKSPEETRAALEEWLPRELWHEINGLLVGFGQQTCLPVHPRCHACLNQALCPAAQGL
Description: Inhibition of NTHL1 by quantifying inhibition of NTHL1-mediated cleavage and dissociation of quenched duplex DNA oligonucleotides, measured as fluorescence at 594 nm.

The target in assay [2] is Methyl-CpG-binding domain protein 4 (Homo sapiens) (UniProt O95243).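 Note: MBD4 activity read as fluorescence at 594 nm from cleavage and release of a quenched duplex DNA oligonucleotide, with APE1 coupled to incise the strand and raise turnover.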
Description: Inhibition of MBD4 by quantifying inhibition of MBD4-mediated cleavage and dissociation of quenched duplex DNA oligonucleotides, measured as fluorescence at 594 nm. To generate a functional strand incision and increase turn-over this assay is coupled to APE1.
Assay [3] deals with G/T mismatch-specific thymine DNA glycosylase (Homo sapiens) (UniProt Q13569).
Description: Inhibition of TDG by quantifying inhibition of TDG-mediated cleavage and dissociation of quenched duplex DNA oligonucleotides, measured as fluorescence at 594 nm. To generate a functional strand incision and increase turn-over this assay is coupled to APE1.
Assay [4] concerns the target DNA-3-methyladenine glycosylase (Homo sapiens) (UniProt P29372).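 Note: enzyme assay where MPG cuts a quenched duplex DNA oligonucleotide probe, paired with APE1 for strand incision and turnover, read as fluorescence at 594 nm.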
Description: Inhibition of MPG by quantifying inhibition of MPG-mediated cleavage and dissociation of quenched duplex DNA oligonucleotides, measured as fluorescence at 594 nm. To generate a functional strand incision and increase turn-over this assay is coupled to APE1.
The target in assay [5] is T2, Adenine DNA glycosylase (Homo sapiens) (UniProt Q9UIF7).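 Note: human MUTYH activity read as 594 nm fluorescence from cleavage and release of a quenched DNA duplex, coupled with APE1 for strand incision, lower signal meaning inhibition.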
T2 sequence (whole entry): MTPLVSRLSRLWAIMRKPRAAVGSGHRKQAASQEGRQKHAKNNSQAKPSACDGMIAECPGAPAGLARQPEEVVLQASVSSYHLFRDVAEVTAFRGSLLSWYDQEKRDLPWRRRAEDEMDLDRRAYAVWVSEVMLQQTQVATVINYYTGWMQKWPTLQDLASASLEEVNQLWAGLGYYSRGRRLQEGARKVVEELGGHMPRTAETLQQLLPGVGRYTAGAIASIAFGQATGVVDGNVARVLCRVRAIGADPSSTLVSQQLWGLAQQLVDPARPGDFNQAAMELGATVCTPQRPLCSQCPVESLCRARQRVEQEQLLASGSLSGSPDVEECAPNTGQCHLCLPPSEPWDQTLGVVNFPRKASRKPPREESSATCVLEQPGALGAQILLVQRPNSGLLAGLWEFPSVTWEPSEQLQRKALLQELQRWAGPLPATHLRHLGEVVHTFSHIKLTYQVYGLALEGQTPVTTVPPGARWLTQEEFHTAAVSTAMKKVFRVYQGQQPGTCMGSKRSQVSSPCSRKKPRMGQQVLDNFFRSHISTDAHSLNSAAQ
Description: Inhibition of MUTYH by quantifying inhibition of MUTYH-mediated cleavage and dissociation of quenched duplex DNA oligonucleotides, measured as fluorescence at 594 nm. To generate a functional strand incision and increase turn-over this assay is coupled to APE1.

Assay [6] deals with Endonuclease 8-like 1 (Homo sapiens) (UniProt Q96FI4).
Description: Inhibition of NEIL1 by quantifying inhibition of NEIL1-mediated cleavage and dissociation of quenched duplex DNA oligonucleotides, measured as fluorescence at 594 nm.
Assay [7] has as its target T3, Single-strand selective monofunctional uracil DNA glycosylase (Homo sapiens) (UniProt Q53HV7).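 Note: enzymatic SMUG1 assay coupled with APE1, reading fluorescence at 594 nm released when a quenched double-stranded DNA oligonucleotide substrate is cleaved and separated.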
T3 sequence (whole entry): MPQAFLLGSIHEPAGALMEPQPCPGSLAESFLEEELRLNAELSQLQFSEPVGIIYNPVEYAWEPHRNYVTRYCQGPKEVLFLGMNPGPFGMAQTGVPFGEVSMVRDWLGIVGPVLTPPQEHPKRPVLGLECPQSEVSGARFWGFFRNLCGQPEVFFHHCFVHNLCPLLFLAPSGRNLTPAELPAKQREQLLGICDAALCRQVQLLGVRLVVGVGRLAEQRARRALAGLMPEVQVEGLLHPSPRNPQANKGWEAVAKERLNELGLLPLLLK
Description: Inhibition of SMUG1 by quantifying inhibition of SMUG1-mediated cleavage and dissociation of quenched duplex DNA oligonucleotides, measured as fluorescence at 594 nm. To generate a functional strand incision and increase turn-over this assay is coupled to APE1.

For assay [8], the target named is Uracil-DNA glycosylase (Homo sapiens) (UniProt P13051).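 Note: UNG excision on a quenched double-stranded DNA oligo probe, with APE1 added for strand incision and turnover, read as fluorescence at 594 nm as strands separate.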
Description: Inhibition of UNG by quantifying inhibition of UNG-mediated cleavage and dissociation of quenched duplex DNA oligonucleotides, measured as fluorescence at 594 nm. To generate a functional strand incision and increase turn-over this assay is coupled to APE1.
Assay [9] deals with N-glycosylase/DNA lyase (Homo sapiens) (UniProt O15527).
Description: Inhibition of OGG1 by quantifying inhibition of OGG1-mediated cleavage and dissociation of quenched duplex DNA oligonucleotides, measured as fluorescence at 594 nm. To generate a functional strand incision and increase turn-over this assay is coupled to APE1.
For assay [10], the target named is T4, Endonuclease 8-like 2 (Homo sapiens) (UniProt Q969S2).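 Note: fluorescence at 594 nm reports NEIL2 cutting and release of a quenched double-stranded DNA oligo substrate, reduced signal read as inhibition.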
T4 sequence (whole entry): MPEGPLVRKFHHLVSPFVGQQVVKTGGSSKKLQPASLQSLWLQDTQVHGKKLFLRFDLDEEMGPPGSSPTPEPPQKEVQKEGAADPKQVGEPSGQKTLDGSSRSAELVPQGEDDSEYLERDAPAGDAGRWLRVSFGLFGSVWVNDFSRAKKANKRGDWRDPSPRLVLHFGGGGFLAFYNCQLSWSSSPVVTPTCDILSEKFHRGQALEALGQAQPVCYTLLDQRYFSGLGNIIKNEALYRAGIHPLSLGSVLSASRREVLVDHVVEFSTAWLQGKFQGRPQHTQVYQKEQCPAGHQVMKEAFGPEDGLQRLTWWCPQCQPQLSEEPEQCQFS
Description: Inhibition of NEIL2 by quantifying inhibition of NEIL2-mediated cleavage and dissociation of quenched duplex DNA oligonucleotides, measured as fluorescence at 594 nm.

Structures are written as SMILES. “And” between values parts separate entries of the source, which are not always exact repeats. Equal values may be shown once.

Sequence of G/T mismatch-specific thymine DNA glycosylase (Homo sapiens) (Q13569 whole entry): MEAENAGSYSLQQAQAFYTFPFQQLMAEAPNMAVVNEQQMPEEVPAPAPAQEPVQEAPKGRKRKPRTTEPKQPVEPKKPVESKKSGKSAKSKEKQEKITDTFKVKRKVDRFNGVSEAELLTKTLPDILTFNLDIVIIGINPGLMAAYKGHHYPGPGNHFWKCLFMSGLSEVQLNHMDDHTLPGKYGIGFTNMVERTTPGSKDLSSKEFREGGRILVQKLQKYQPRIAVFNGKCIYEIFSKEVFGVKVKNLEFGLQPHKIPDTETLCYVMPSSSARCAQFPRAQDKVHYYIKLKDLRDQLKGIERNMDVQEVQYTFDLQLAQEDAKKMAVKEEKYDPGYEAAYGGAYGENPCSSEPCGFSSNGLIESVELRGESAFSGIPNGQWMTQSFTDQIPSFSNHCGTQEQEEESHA
Sequence of Methyl-CpG-binding domain protein 4 (Homo sapiens) (O95243 whole entry, the tested form may be a part): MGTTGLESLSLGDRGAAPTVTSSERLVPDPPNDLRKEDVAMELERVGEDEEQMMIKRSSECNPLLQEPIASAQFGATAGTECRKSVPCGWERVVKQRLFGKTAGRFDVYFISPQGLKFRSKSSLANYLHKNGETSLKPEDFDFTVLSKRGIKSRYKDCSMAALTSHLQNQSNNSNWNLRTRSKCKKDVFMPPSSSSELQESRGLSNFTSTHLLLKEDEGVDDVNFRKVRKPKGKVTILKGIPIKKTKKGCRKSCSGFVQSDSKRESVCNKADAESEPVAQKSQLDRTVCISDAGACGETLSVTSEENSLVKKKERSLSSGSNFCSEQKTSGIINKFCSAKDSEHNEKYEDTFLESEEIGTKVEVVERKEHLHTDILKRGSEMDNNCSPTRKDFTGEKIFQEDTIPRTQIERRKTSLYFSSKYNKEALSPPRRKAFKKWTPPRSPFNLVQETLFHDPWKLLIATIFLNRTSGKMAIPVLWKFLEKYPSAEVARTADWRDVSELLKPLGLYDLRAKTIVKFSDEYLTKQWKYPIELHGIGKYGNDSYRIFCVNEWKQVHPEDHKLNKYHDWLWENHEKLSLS
Sequence of N-glycosylase/DNA lyase (Homo sapiens) (O15527 whole entry): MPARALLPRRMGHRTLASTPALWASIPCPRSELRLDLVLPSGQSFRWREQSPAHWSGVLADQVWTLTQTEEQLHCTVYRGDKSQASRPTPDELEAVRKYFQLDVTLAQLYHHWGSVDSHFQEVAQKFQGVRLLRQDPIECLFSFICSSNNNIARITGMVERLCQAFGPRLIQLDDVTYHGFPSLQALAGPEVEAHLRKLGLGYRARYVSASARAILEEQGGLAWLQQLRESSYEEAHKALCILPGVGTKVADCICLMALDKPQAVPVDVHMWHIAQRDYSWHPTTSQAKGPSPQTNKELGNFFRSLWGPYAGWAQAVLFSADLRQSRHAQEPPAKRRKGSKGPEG
Sequence of DNA-3-methyladenine glycosylase (Homo sapiens) (P29372 whole entry): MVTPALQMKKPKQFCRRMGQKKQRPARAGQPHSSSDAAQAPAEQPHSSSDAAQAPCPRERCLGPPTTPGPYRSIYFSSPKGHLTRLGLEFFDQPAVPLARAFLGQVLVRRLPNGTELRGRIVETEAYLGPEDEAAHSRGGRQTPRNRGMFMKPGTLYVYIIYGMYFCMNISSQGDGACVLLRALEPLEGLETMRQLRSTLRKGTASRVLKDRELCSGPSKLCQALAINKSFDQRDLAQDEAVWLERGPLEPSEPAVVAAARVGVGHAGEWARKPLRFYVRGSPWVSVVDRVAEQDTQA
Sequence of Uracil-DNA glycosylase (Homo sapiens) (P13051 whole entry): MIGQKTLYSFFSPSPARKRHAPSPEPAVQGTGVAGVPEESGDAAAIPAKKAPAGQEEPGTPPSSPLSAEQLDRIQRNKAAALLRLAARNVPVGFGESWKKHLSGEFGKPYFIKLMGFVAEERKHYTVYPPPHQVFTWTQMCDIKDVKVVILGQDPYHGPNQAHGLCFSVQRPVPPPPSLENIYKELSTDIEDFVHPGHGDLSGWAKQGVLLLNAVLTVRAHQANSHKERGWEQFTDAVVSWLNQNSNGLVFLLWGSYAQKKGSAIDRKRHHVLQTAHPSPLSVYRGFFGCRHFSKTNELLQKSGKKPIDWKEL
Sequence of Endonuclease 8-like 1 (Homo sapiens) (Q96FI4 whole entry): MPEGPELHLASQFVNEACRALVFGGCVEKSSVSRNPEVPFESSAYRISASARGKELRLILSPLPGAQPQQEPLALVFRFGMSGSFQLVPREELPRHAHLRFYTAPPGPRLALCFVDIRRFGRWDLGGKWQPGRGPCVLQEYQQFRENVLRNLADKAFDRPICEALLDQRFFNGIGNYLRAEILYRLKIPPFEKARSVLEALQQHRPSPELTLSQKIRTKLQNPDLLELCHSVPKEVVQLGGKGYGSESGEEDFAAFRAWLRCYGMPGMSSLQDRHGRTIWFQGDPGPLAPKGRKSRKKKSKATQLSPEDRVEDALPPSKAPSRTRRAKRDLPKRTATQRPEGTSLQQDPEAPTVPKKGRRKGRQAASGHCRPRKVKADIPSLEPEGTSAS

On to `N[C@@H](Cn1cc(F)c(=O)[nH]c1=O)C(=O)O`, for which the inhibition is 0.568% in assay [1]; 3.94% in assay [2]; 12.4% in assay [3]; 0.976% in [4]; 6.98% in assay [5]; -2.06% in assay [6]. The inhibition in [7] was -7.64%; in assay [8] it was -5.2%; in assay [9], -9.73%.

Regarding `CCCCC[C@H](O)/C=C/[C@H]1[C@H](O)CC(=O)[C@@H]1CCCCCCC(=O)O`, the inhibition in [1] is 22.9%; in [2], 3.22%; in [3], 19.5%; in assay [4], 6.53%; in [5], -0.521%; in assay [6], 4.31%. For the same compound, the inhibition in assay [7] was -7.25%; in [8], -7.06%; in assay [9], -9.68%.

With `CC(C)[C@@H]1CC[C@@H](C)C[C@@H]1P(=O)(c1ccccc1)c1ccccc1`, the inhibition in assay [1] is 6.35%; in assay [2], 3.26%; in [3], -6.96%; in [4] it was -5.97%; in assay [5], 1.29%; in assay [6], -6.96%. The inhibition is -9.39% in [7] and -2.54% in assay [9].

For the compound `COc1cccc([C@H](O)C2CCN(CCc3ccc(F)cc3)CC2)c1OC`, the inhibition in assay [1] is 3.39%; in assay [2], 14.4%; in assay [3], 22.3%; in [4], -10%; in [5], -6.25%; in assay [6] it was -1.98%. Besides, the inhibition in [7] is 4.47%; in [10], -8.72%; in assay [9], -1.39%.

With `O=C(NCCNCC(O)COc1ccc(O)cc1)N1CCOCC1` (configuration not stated), the inhibition in assay [1] was 8%; in [2], 9.4%; in [3] it was 9.41%; in [4], -2.83%; in assay [5], -0.651%; in [6], 1.79%. Moreover, the inhibition in assay [7] was -1.43%; in assay [8], -5.67%; in assay [9], -7.78%.

Regarding `N=C(N)NC(=O)Cc1c(Cl)cccc1Cl`, the inhibition in assay [1] was 20.2%; in assay [2] it was -6.99%; in assay [3], 3.06%; in [4], -0.939%; in assay [5] it was -4.2%; in [6], 10.8%. The inhibition in assay [7] is 3.31%; in assay [10], 12.5%; in assay [9] it was -0.992%.

For the compound `CSc1cc2c(cc1C(F)(F)F)N(C(=O)Nc1cccnc1)CC2`, the inhibition in [1] was 5.59%; in assay [2] it was -9.84%; in [3], 11.2%; in [4] it was -3.29%; in [5], -9.06%; in assay [6], 6.91%. Further, the results for the inhibition in assay [7], in assay [10] and in [9] were 4.28%, 16.2% and -1.82%, respectively.

Turning to `CCCCCNC(=O)NS(=O)(=O)c1cc([N+](=O)[O-])ccc1NC1CCCCC1`, the inhibition is 14.4% in [1]; 22.7% in [2]; 23.6% in [3]; 19.1% in assay [4]; 30.5% in assay [5]; -1.39% in assay [6]. Further, the inhibition in [7] amounted to 13.9%; in [10], 14.5%; in assay [9] it was 8.51%.

As for `Cc1nnn(-c2ccc(-c3ccc(C4(C(=O)O)CC4)cc3)cc2)c1NC(=O)O[C@H](C)c1ccccc1`, the inhibition in assay [1] is -7.6%; in [2], 34.4%; in [3], 20.7%; in assay [4], 13.9%; in [5], 17.2%; in assay [6], -1.39%. Further, the results for the inhibition in assay [7], in assay [10] and in [9] were 4.91%, 4.01% and -1.41%, respectively.

On to `Cc1c(F)cccc1[C@H]1COC(N)=N1`, for which the inhibition in [1] came to 14.6%; in assay [2], 5.02%; in [3], 11.7%; in [4], 12.2%; in assay [5] it was 32.1%; in assay [6], 11.3%. Besides, the inhibition in [7] was -8.55%; in [10], -0.86%; in assay [8], -1.2%.

Take `CCCNS(=O)(=O)Nc1ncnc(OCCOc2ncc(Br)cn2)c1-c1ccc(Br)cc1`: the inhibition was 7.05% in [1]; 24.4% in assay [2]; 18.3% in assay [3]; 19% in assay [4]; 26.1% in [5]; -4.06% in assay [6]. Further, the inhibition in [7] is -4.93%; in [10], 2.51%; in assay [9] it was 2.2%.

As for `COc1cc(OC2CCN(C(C)=O)CC2)ccc1C(=O)N1CCC(N2C(=O)OCc3ccccc32)CC1`, the inhibition in [1] was 24.5%; in [2], 5.95%; in assay [3], 20.8%; in assay [4], -3.3%; in [5], 48.1%; in assay [6] it was 2.08%. The values for the inhibition in [7], in assay [10] and in [8] were -0.579%, 5.25% and -2.76%, respectively.

Turning to `CO[C@H]1CC=C2CCN3CCC4=C(CC(=O)OC4)[C@]23C1`, the inhibition in assay [1] was -0.258%; in assay [2], 5.26%; in assay [3], -1.81%; in assay [4] it was -7.01%; in assay [5], 1.14%; in assay [6] it was -3.1%. Further, the inhibition in [7] was -2.5%; in assay [10], -5.96%; in assay [8], -6.82%.

Turning to `O=C(O)c1n[nH]c2c1C[C@H]1C[C@@H]21`, the inhibition in [1] was 21.7%; in assay [2], -4.32%; in [3] it was -5.48%; in [4] it was -4.72%; in [5], -6.12%; in assay [6] it was -0.352% and 3.65%. Also, the inhibition in [7] is -5.22%; in assay [10], -1.48% and -4.98%; in assay [9] it was -1.41%.

Take `C=CC(=O)Nc1cccc(C(=O)Nc2ccc(Nc3cc(-c4[nH]c(S)nc4C)ccn3)cc2)c1`: the inhibition is -6.89% in assay [1]; 23.5% in assay [2]; 102% in assay [3]; 19.6% in assay [4]; 61% in assay [5]; 5.55% in [6]. The figures for the inhibition in assay [7], in assay [10] and in assay [8] were 16.9%, 8.04% and 3.19%, respectively.

Take `CNc1nc(-c2ccc3c(N)n[nH]c3c2)cc(N2C[C@@H](C(=O)NC3CCCCC3)CC[C@H]2C)n1`: the inhibition was -2% in [1]; 21.4% in assay [2]; 57.1% in assay [3]; 23.1% in [4]; 25.6% in assay [5]; 3.84% in assay [6]. In addition, the values for the inhibition in assay [7], in assay [10] and in assay [8] were 20.7%, -5.15% and 5.37%, respectively.

As for `N#Cc1cccc(-c2nc(-c3cccnc3)no2)c1`, the inhibition in assay [1] was -1.08%; in [2], -5.03%; in assay [3], -5.18%; in assay [4], -9.43%; in [5], -6.2%; in [6] it was 2.53%. Besides, the inhibition in [7] is -8.21%; in assay [10], -2.39%; in assay [8] it was -2.96%.

Broadly, the inhibition is the drop in the measured response relative to a control, in per cent.
